Measurements from patent publication US11420910B2, “Methods for low temperature fluorine-18 radiolabeling of biomolecules” (KATHOLIEKE UNIVERSITEIT LEUVEN, priority 2014, dated 2022).
“Also recorded” adds a separate entry of the source.

Experiments:
[1] = Stability test on the semi-automated [Al18F]-L3 batch at room temperature; assay type: physicochemical; conditions: incubation at room temperature for 2 hours
Procedure: To assess the efficiency of the labeling agent in a more realistic setting, the process for radiosynthesis and purification of [Al^18F]-L3 was performed semi-automatically. [^18F]fluoride was produced and trapped on a SepPak™ Light Accel plus QMA anion as described previously. The [^18F]F^− was eluted from the cartridge with an aqueous solution of sodium chloride 0.9% (0.2 mL) and added to 22.5 μl of 20 mM aluminum chloride (AlCl3) in sodium acetate buffer (0.1 M, pH 4). The solution was incubated at RT for 10 min to form {Al^18F}^2+. A solution of H3L3 (0.5 mL, 1.5 mM) was added and the reactor was heated at 40° C. for 12 min. After dilution with water (0.5 mL), the crude reaction mixture was injected onto a semi-preparative HPLC column (XBridge C18, 5 μm, 4.6 mm×150 mm, Waters) eluted with EtOH: sodium acetate 0.05M pH 5.5, 8:92 (v/v) at a flow rate of 1 mL/min. UV detection of the eluate was performed at 254 nm. Identification of the [Al^18F]-L3 complex was done by radio-LC-HRMS (Acquity UPLC BEH C18, 1.7 μm, 2.1 mm×150 mm, Waters. 0.6 mL/min A: H2O B: ACN, 0-2 min 5% B, 2 to 8 min 5% B to 95% B, 8-10 min 95% B, 10 to 12 min 95% B to 5% B).
H3L3 was labeled with {Al^18F}^2+ in a non-optimized yield of 74% (12 min 40° C., pH 4). The batch (4.63 GBq) was produced with a RCP higher than 98% in 35 min starting after elution of fluorine-18. […]

[2] = Stability tests of Al18F-complexes in PBS (0.1 M, pH 7) at 37° C., Example 26; assay type: physicochemical; conditions: PBS 0.1 M pH 7, 37° C.
Procedure: (§1) 400 μl of each purified [Al^18F]-complex solution was added to 1 mL of PBS and/or 1 mL of rat serum. […] Finally the supernatant was analysed using iTLC-SG.

[3] = Stability tests of Al18F-complexes in rat serum at 37° C., Example 26; assay type: in vitro ADME
Procedure: as §1

[4] = Stability tests of Al18F-complexes in different buffers ranging from pH 2 to 8 (room temperature, iTLC-SG); assay type: physicochemical; conditions: for RCP: after 60 min
Procedure: (§2) 200 μl of the purified Al^18F-L3 solution was added to 1 mL of sodium phosphate buffer (0.1 M, pH 2), sodium phosphate buffer (0.1 M, pH 3), sodium acetate buffer (0.1 M, pH 4), sodium acetate buffer (0.1 M, pH 5), sodium acetate buffer (0.1 M, pH 6), PBS buffer (0.1 M, pH 7) or Tris-HCl buffer (0.1 M, pH 8). These mixtures were incubated at room temperature and analyzed by iTLC-SG at 30 and 60 min after the start of the incubation.
as §2, with “Al^18F-L26” for “Al^18F-L3”

[5] = Biodistribution of Al18F-complexes and {Al18F}2+ in healthy male NMRI mice; assay type: in vivo; conditions: for uptake in blood / uptake in bone / uptake in intestines / uptake in kidneys / uptake in liver / uptake in urinary bladder: NMRI mice, tail vein
Procedure: (§3) Quantification of radioactivity during biodistribution studies was performed using an automated gamma counter equipped with a 3-inch NaI(TI) well crystal coupled to a multichannel analyzer, mounted in a sample changer (Perkin Elmer 1480 Wizard 3q). Counts were corrected for background radiation, physical decay and counter dead time.
(§4) The biodistribution of the [Al^18F]-L3 complex and {Al^18F}^2+ was determined in healthy male Naval Medical Research Institute (NMRI) mice (body weight: 30-40 g) at 10 and 60 min post injection (p.i.) (n=4/time point). Mice were injected with the [Al^18F]-L3 complex (about 1 MBq) or {Al^18F}^2+ (5.55 MBq) via a tail vein under anesthesia (2.5% isoflurane in O2 at 1 L/min flow rate) and sacrificed by decapitation at above specified time points. Blood and major organs were collected in tared tubes and weighed. The radioactivity in blood, organs and other body parts was counted using an automated γ-counter. For the calculation of total radioactivity in blood, bone and muscle, masses were assumed to be, respectively, 7, 12 and 40% of the total body mass.^20, 21
as §3, with “Nai(TI)” for “NaI(TI)”
as §4, with “[Al^18F]-L26” for “[Al^18F]-L3”, “(n=3/time point for 10 min p.i. and n=4/time point for 60 min p.i.).” for “(n=4/time point).”, “mass.^20,21” for “mass.^20, 21”

In the case of `O=C1CN(Cc2ccccc2)CCN2CC(=O)[O][Al-]([18F])([O]1)[O]c1ccccc1C2` (stereo not drawn) [Al^18F-L3], the “[Al18F]-L3 still intact” value [1] is reported as “more than 95%”, the “stability in PBS (in words)” value [2] is reported as “comparable to that of Al^18F-NODA-benzyl up to 60 minutes; also recorded: stability comparable to that of the previously reported Al^18F-NODA” and the RCP ([2]; 120 min) is reported as 80%. For the same compound, the RCP ([2]; 240 min) was 70%, the “stability in rat serum (in words)” value [3] was “good stability in rat serum; also recorded: stability comparable to that of the previously reported Al^18F-NODA” and the RCP ([3]; 240 min) was 66%. The “stability at different pH (in words)” value ([4]; buffers pH 2 to 8, room temperature, 30 and 60 min) was “not stable at pH 2, pH 3 and pH 4; also recorded: stable for at least 60 min in the pH range from 5 to 8”, the RCP ([4]; sodium acetate buffer 0.1 M pH 4, room temperature) was 75% and the RCP ([4]; sodium phosphate buffer 0.1 M pH 2, room temperature) was 58%. For the same compound, the RCP ([4]; sodium phosphate buffer 0.1 M pH 3, room temperature) was 68%, the uptake in blood ([5]; 10 min p.i.) was 1.1 % ID and the uptake in bone ([5]; 10 min p.i.) was 1.6 % ID. For the same compound, the uptake in intestines ([5]; 10 min p.i.) was 25.17 % ID, the uptake in kidneys ([5]; 10 min p.i.) was 2.2 % ID and the uptake in liver ([5]; 10 min p.i.) was 47.83 % ID. The “uptake in urinary bladder” value ([5]; 10 min p.i.) was 13.2 % ID, the uptake in blood ([5]; 60 min p.i.) was 0.3 % ID and the uptake in bone ([5]; 60 min p.i.) was 2.5 % ID. It also gave an uptake in intestines ([5]; 60 min p.i.) of 59.48 % ID, an uptake in kidneys ([5]; 60 min p.i.) of 1.0 % ID and an uptake in liver ([5]; 60 min p.i.) of 13.53 % ID. The “uptake in urinary bladder” value ([5]; 60 min p.i.) was 17.8 % ID, the “route of clearance (in words)” value ([5]; mice, 60 min p.i.) was “hepatobiliary clearance” and the “in vivo stability judged from bone uptake (in words)” value ([5]; mice, biodistribution) was “high stability”.
